Test [1] relates to CXCR4-B16 cells. Description: adhesion of CXCR4-B16 cells to resting DMEC in parallel plate flow chamber. The test is classed as cell-based, murine. As to conditions: DMEC exposed to 100 ng/ml chemokine for 15 min; 1.5 dynes/cm^2. Here is the method:
Prior to interaction with tumor cells, resting confluent DMEC or LMEC were exposed to 100 ng/ml of recombinant CXCL12 or CCL21 for 15 min at 20° C. as described (Cinamon et al., Nat. Immunol. 2: 515-22 (2001)). After unbound chemokine was washed away, calcein-AM-labeled (Molecular Probes, Eugene, Oreg.) CXCR4- or pLNCX2-B16 cells (2.5×10^5/ml in B16 medium) were injected at 1.5 dynes/cm^2 into a parallel plate flow chamber (Glycotech, Gaithersburg, Md.) containing confluent DMEC or LMEC. In some cases, tumor cells were treated with pertussis toxin (PTX, Calbiochem, San Diego, Calif.) at 100 ng/ml for 2 hours at 37° C. to block Gi-protein-coupled signaling. After two min, flow was stopped, which enabled B16 cells to interact with MEC in the absence of shear stress. After 5 min, shear was re-established at 1.5 dynes/cm^2 for up to 2 min in order to detach unbound cells; adherent cells were digitally photographed in 5-6 random fields (each field=1.18 mm^2) with excitation at 488 nm and emission at 513 nm using sufficient exposure time (˜1 s) to allow distinction between non-moving and moving cells (which appeared as dim streaks) (Fitzhugh et al. (2000), supra). Cells were then counted with the software program IPlab (Scanalytics, Fairfax, Va.). […]

Test [2] concerns CXCR4-B16 cells. Description: arrest of CXCR4-B16 cells on VCAM-1/Ig-coated plates under flow. As to conditions: CXCR4-B16 on plates co-coated with VCAM-1/Ig and 1 μg/ml chemokine; 1.5 dynes/cm^2. The test is classed as cell-based, murine. On the procedure: Cell suspension plates (35 mm, Model # 430588, Corning Inc., NY) were coated with human VCAM-1/IgG chimera (1 μg/ml) overnight at 4° C. in Tris-buffered saline (Maki et al., Immunol. 169:2346-2353 (2002)). Plates were then briefly rinsed with PBS, co-coated with 1 μg/ml of CXCL12, CCL19, or no chemokine in PBS for 2 hr at 4° C., and blocked with 1% BSA/PBS for 1 hr at 4° C. Calcein-acetomethyl (AM)-labeled (Molecular Probes, Eugene, Oreg.) CXCR4-B16 or pLNCX2-B16 cells (2.5×10^5 cells/ml in cDMEM) were injected at 1.5 dynes/cm^2 into a parallel plate flow chamber (Glycotech, Gaithersburg, Md.) that had been placed over the adhesion molecule- and/or chemokine-coated suspension plate.
For dynamic assays on recombinant molecule-coated plates as well as on LMEC, tumor cells were introduced into the chamber under a constant shear stress of 1.5 dynes/cm^2 without allowing cells to settle at any time during the assay. Ten min after flow was initiated, arrested cells were digitally photographed (without flow being decreased) in 4-6 random fields (each field=1.18 mm^2) with excitation at 488 nm and emission at 513 nm using sufficient exposure time (˜1 s) to allow distinction between moving cells, which appeared as dim streaks, and stationary cells. Cells were then enumerated with the software program IPlab (Scanalytics, Fairfax, Va.). […]

On to “CCL19: an unrelated chemokine used as control”, for which the “adherent B16-CXCR4 cells on DMEC (Table 6)” value with CXCR4-B16 cells [1] stood at 6.8. The substance further came in with a Mean adherent cells/field in the test with CXCR4-B16 cells [2] of 17.2 cells/field.

Values taken from patent US20040132642A1, “Methods of inhibiting metastasis or growth of a tumor cell” (Government of the U.S.A., represented by the Secretary, …, priority 2002, published 2004).
